Test results reported in patent US20250287945A1, “COMPOSITIONS FOR FUNGAL CONTROL AND RELATED METHODS” (priority 2021, published 2025).

Key:
[1] = test system: Fusarium conidial suspension; test: Fusarium viability colorimetric assay (PrestoBlue resazurin); assay type: cell-based; details: four replicates, protocol and peptides as third experiment (175 and 375 micromolar), concentration not given
Description: A Fusarium conidial suspension was prepared from a 7-day culture of Fusarium biomass grown on potato dextrose agar for 7 days, and quantified by hemocytometer, as described in Example 4. Solutions of fenpiclonil (Millipore Sigma, Cat. no. 36532) and of the individual peptides were prepared in 50% (w/v) ethanol in water, and tested using a PrestoBlue™ (resazurin) viability colorimetric assay as described in Example 4.
The Fusarium conidial suspension, peptide or control treatment solution, and potato dextrose broth (Alpha Biosciences, catalogue no. P16-126) were added to each well of a 96-well plate to obtain the desired treatment concentration and 1×10^6 conidia/mL in a final volume of 150 microliters per well. The plates were covered and incubated at 30° C. for 18 hours and 200 rpm. Fifteen microliters of PrestoBlue™ Cell Viability Reagent (Thermofisher Scientific, Cat no. A13262) were added to each well, and the plate was further incubated before measuring fluorescence at 590 nm emission with excitation at 560 nm using a spectrophotometer (BioTek Synergy H1 Microplate Reader, Fischer Scientific, Cat. no. 11-120-533).

[2] = test system: Nicotiana benthamiana leaves; test: Phytotoxicity at the treatment site on detached leaves; assay type: in vivo; details: 275 micromolar in 50% ethanol, 100 microliters on leaf quadrant
[3] = test system: Botrytis cinarea (strain CBS 261.71); test: Botrytis viability colorimetric assay (PrestoBlue resazurin); assay type: cell-based, Botrytis cinerea; details: Botrytis, CBS261; 375 micromolar; four replicates; read-out: Percent Inhibition (Botrytis), Mean
Fusarium culmorum = assay type: cell-based
Zymoseptoria tritici = assay type: cell-based
Phytophthora infestans = assay type: cell-based; details: 7 days incubation; modified RPMI medium, 25 degrees Celsius; concentration not given
Fusarium graminearum = assay type: cell-based; details: 22 hours incubation; modified RPMI medium, 25 degrees Celsius; concentration not given

Molecule	Percent Inhibition (Fusarium), Experiment 4, Mean ([1]; Experiment 4) [%]	Percent Inhibition (Fusarium), Experiment 5, Mean ([1]; Experiment 5) [%]	phytotoxicity (tissue necrosis at the treatment site) [2]	inhibition at 375 µM [3] [%]	inhibition relative to a control (Fusarium culmorum) [%]	inhibition relative to a control (Zymoseptoria tritici) [%]	inhibition relative to a control (Phytophthora infestans) [%]	inhibition relative to a control (Fusarium graminearum) [%]
N#Cc1c[nH]cc1-c1cccc(Cl)c1Cl [Fenpiclonil, 4-(2,3-dichlorophenyl)-1H-pyrrole-3-carbonitrile, reference compound]	82.25	79.19	phytotoxic	75.8	–	–	–	–
WHWLQLKPGQPMYRRRRRRRR [SEQ ID NO: 2240]	–	–	–	–	≥ 50	≥ 50	≥ 50	≥ 50
